Laboratory results reported in ChEMBL document CHEMBL1201862, “PubChem BioAssay data set” (2004).
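Tested at 5 concentrations; 48 h exposure; 96-well plates; endpoints linearly interpolated, else capped at highest concentration. The concentration for 50% growth inhibition is given as GI50.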 Calls of active or inactive are those of the source. Rule as the data show it: active = GI50 up to about 1.1 µM and inactive = higher.

Assays:
Experiment in all cases: NCI anticancer screen, dose series, 48 h
[1] = tested on: NCI-H460
[2] = tested on: KM12
[3] = tested on: T47D
[4] = tested on: UO-31
[5] = tested on: HOP-62
[6] = tested on: NCI/ADR-RES
[7] = tested on: SR
[8] = tested on: HL-60
[9] = tested on: SK-MEL-5
[10] = tested on: RXF 393
[11] = tested on: RPMI-8226
[12] = tested on: MDA-MB-435
[13] = tested on: M14
[14] = tested on: DLD-1
[15] = tested on: NCI-H226
[16] = tested on: SNB-75
[17] = tested on: HCT-15
[18] = tested on: A498
[19] = tested on: OVCAR-8
[20] = tested on: SF-268

Structure (SMILES): N#CC1(C2SCC[S+]2[O-])C2=C(C(=O)c3ccccc3C2=O)N2CCCC21 (stereo not given)
- GI50 [1]: 2320 nM (inactive)
- GI50 [2]: 3020 nM (inactive)
- GI50 [3]: 3300 nM (inactive)
- GI50 [4]: 4680 nM (inactive)
- GI50 [5]: 5280 nM (inactive)
- GI50 [6]: 3120 nM (inactive)
- GI50 [7]: 935 nM (active)
- GI50 [8]: 1550 nM (inactive)
- GI50 [9]: 364 nM (active)
- GI50 [10]: 998 nM (active)
- GI50 [11]: 1050 nM (active)
- GI50 [12]: 497 nM (active)
- GI50 [13]: 1170 nM (inactive)
- GI50 [14]: 2740 nM (inactive)
- GI50 [15]: 3660 nM (inactive)
- GI50 [16]: 3230 nM (inactive)
- GI50 [17]: 2210 nM
- GI50 [18]: 4070 nM (inactive)
- GI50 [19]: 2180 nM (inactive)
- GI50 [20]: 3010 nM (inactive)
